Consider 38 compounds from patent publication US9018388B2, “Pesticidal compositions and processes related thereto” (Dow AgroSciences LLC, priority 2012, dated 2015).

Structures are written as SMILES.

The subject of experiment [1] is Beet Armyworm (BAW) (Spodoptera exigua). Description: Bioassay on beet armyworm (BAW), 128-well diet tray assay. The experiment is classed as in vivo. To be noted: Spodoptera exigua; Beet armyworm, 50 μg/cm^2; read-out: % Mortality BAW 50 μg/cm^2. In outline: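 Second-instar Spodoptera exigua larvae, one to five per well, on artificial diet treated with 50 μg/cm^2 compound in 90:10 acetone-water and dried, eight wells per compound. Held at 25 °C, 14:10 light-dark for five to seven days; percent mortality averaged over wells.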

Experiment [2] relates to Corn Earworm (CEW) (Helicoverpa zea). Description: Bioassay on corn earworm (CEW), 128-well diet tray assay. Type of experiment: in vivo. As to conditions: Helicoverpa zea; Corn earworm, 50 μg/cm^2; read-out: % Mortality CEW 50 μg/cm^2. In outline:
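Second-instar Helicoverpa zea larvae (one to five per well) placed on artificial diet treated with 50 μg/cm^2 compound in 90:10 acetone-water, dried, eight wells per compound. Held at 25 °C, 14:10 light-dark, five to seven days; percent mortality averaged over wells.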

Turning to `Cc1cc(Cl)cc(C)c1N1C(=O)CS/C1=N\N=C\c1ccc(-c2ncn(-c3ccc(OC(F)(F)F)cc3)n2)cc1` [Compound 105C], the pest or weed control at 50 µg/cm2, 50 µg/cm2 in experiment [1] and in experiment [2] was 50 to 100% in each case.
Regarding `CC(C)c1cccc(F)c1N1CS/C1=N\N=C\c1ccc(-c2ncn(-c3ccc(OC(F)(F)F)cc3)n2)cc1` [Compound 250C], the pest or weed control at 50 µg/cm2, 50 µg/cm2 in experiment [1] and in experiment [2] was 50 to 100% in each case.
With `CCc1ccccc1N1C(=O)CS/C1=N\N=C\c1ccc(-c2ncn(-c3ccc(OC(F)(F)F)cc3)n2)cc1` [Compound 94C], the pest or weed control at 50 µg/cm2, 50 µg/cm2 in experiment [1] and in experiment [2] was 50 to 100% in each case.
On to `CCc1cccnc1N1C(=O)CS/C1=N\N=C\c1ccc(-c2ncn(-c3ccc(OC(F)(F)F)cc3)n2)cc1` [Compound 123C], for which the pest or weed control at 50 µg/cm2, 50 µg/cm2 in experiment [1] and in experiment [2] was 50 to 100% in each case.
In the case of `Cc1cccc(Cl)c1N1CS/C1=N\N=C\c1ccc(-c2ncn(-c3ccc(OC(F)(F)F)cc3)n2)cc1` [Compound 246C], the pest or weed control at 50 µg/cm2, 50 µg/cm2 in experiment [1] and in experiment [2] was 50 to 100% each time.
For the compound `Cc1cccc(C)c1N1CS/C1=N\N=C\c1ccc(-c2ncn(-c3ccc(OC(F)(F)F)cc3)n2)cc1` [Compound 241C], the pest or weed control at 50 µg/cm2, 50 µg/cm2 in experiment [1] and in experiment [2] was 50 to 100% in each case.
As for `CC1S/C(=N\N=C\c2ccc(-c3ncn(-c4ccc(OC(F)(F)F)cc4)n3)cc2)N(c2ccccc2C2CC2)C1=O` (stereo not shown) [Compound 127C], the pest or weed control at 50 µg/cm2, 50 µg/cm2 in experiment [1] and in experiment [2] was 50 to 100% in each case.
Take `Cc1cccc(Cl)c1N1CCCS/C1=N\N=C\c1ccc(-c2ncn(-c3ccc(OC(F)(F)F)cc3)n2)cc1` [Compound 196C]: the pest or weed control at 50 µg/cm2, 50 µg/cm2 in experiment [1] and in experiment [2] was 50 to 100% each time.
Turning to `Cc1cccc(C)c1/N=C(/N/N=C/c1ccc(-c2ncn(-c3ccc(OC(F)(F)F)cc3)n2)cc1)SCC(=O)NCC(N)C(=O)O` (stereo not shown) [Compound 63C], the pest or weed control at 50 µg/cm2, 50 µg/cm2 in experiment [1] and in experiment [2] was 50 to 100% throughout.
Take `O=C1CS/C(=N\N=C\c2ccc(-c3ncn(-c4ccc(OC(F)(F)F)cc4)n3)cc2)N1c1ccccc1Cl` [Compound 106C]: the pest or weed control at 50 µg/cm2, 50 µg/cm2 in experiment [1] and in experiment [2] was 50 to 100% in each case.
`Cc1cccc(C)c1/N=C(/N/N=C/c1ccc(-c2ncn(-c3ccc(OC(F)(F)F)cc3)n2)cc1)SCc1ccccc1` [Compound 10C]: the pest or weed control at 50 µg/cm2, 50 µg/cm2 in experiment [1] and in experiment [2] was 50 to 100% in each case.
Take `CS/C(=N\c1ccc(N(C)C)cc1)N/N=C/c1ccc(-c2ncn(-c3ccc(OC(F)(F)F)cc3)n2)cc1` [Compound 1C, N-(4-dimethylaminophenyl)-S-methyl-2-{4-[1-(4-trifluoromethoxyphenyl)-1H-[1,2,4]-triazol-3-yl]-benzylidene}-hydrazine-carbothioamide]: the pest or weed control at 50 µg/cm2, 50 µg/cm2 in experiment [1] and in experiment [2] was 50 to 100% each time.
Regarding `CC1CCS/C(=N\N=C\c2ccc(-c3ncn(-c4ccc(OC(F)(F)F)cc4)n3)cc2)N1c1c(Cl)cccc1C(F)(F)F` (stereo not shown) [Compound 217C], the pest or weed control at 50 µg/cm2, 50 µg/cm2 in experiment [1] and in experiment [2] was 50 to 100% each time.
Regarding `COc1cc(C)c(/N=C(/N/N=C/c2ccc(-c3ncn(-c4ccc(OC(F)(F)F)cc4)n3)cc2)SCC(=O)NCCCN)c(C)c1` [Compound 64C], the pest or weed control at 50 µg/cm2, 50 µg/cm2 in experiment [1] and in experiment [2] was 50 to 100% in each case.
Turning to `O=C1CS/C(=N\N=C\c2ccc(-c3ncn(-c4ccc(OC(F)(F)F)cc4)n3)cc2)N1c1ccccc1OC(F)(F)F` [Compound 124C], the pest or weed control at 50 µg/cm2, 50 µg/cm2 in experiment [1] and in experiment [2] was 50 to 100% each time.
As for `CCc1ccccc1N1CS/C1=N\N=C\c1ccc(-c2ncn(-c3ccc(OC(F)(F)F)cc3)n2)cc1` [Compound 254C], the pest or weed control at 50 µg/cm2, 50 µg/cm2 in experiment [1] and in experiment [2] was 50 to 100% each time.
As for `CCC(C)c1ccccc1N1C(=O)CCS/C1=N\N=C\c1ccc(-c2ncn(-c3ccc(OC(F)(F)F)cc3)n2)cc1` (stereo not shown) [Compound 230C], the pest or weed control at 50 µg/cm2, 50 µg/cm2 in experiment [1] and in experiment [2] was 50 to 100% each time.
For `Cc1cccc(C)c1N1C(=O)CS/C1=N\N=C\c1ccc(-c2cnn(-c3ccc(OC(F)(F)F)cc3)c2)cc1` [Compound 104C], the pest or weed control at 50 µg/cm2, 50 µg/cm2 in experiment [1] and in experiment [2] was 50 to 100% throughout.
As to `O=C1CS/C(=N\N=C\c2ccc(-c3ncn(-c4ccc(OC(F)(F)F)cc4)n3)cc2)N1c1c(Br)cccc1Br` [Compound 99C], the pest or weed control at 50 µg/cm2, 50 µg/cm2 in experiment [1] and in experiment [2] was 50 to 100% throughout.
As for `CC(C)Cc1ccccc1N1C(=O)CS/C1=N\N=C\c1ccc(-c2ncn(-c3ccc(OC(F)(F)F)cc3)n2)cc1` [Compound 119C], the pest or weed control at 50 µg/cm2, 50 µg/cm2 in experiment [1] and in experiment [2] was 50 to 100% throughout.
Consider `Cc1cs/c(=N\N=C\c2ccc(-c3ncn(-c4ccc(OC(F)(F)F)cc4)n3)cc2)n1-c1c(F)cccc1F` [Compound 171C], for which the pest or weed control at 50 µg/cm2, 50 µg/cm2 in experiment [1] and in experiment [2] was 50 to 100% in each case.
Turning to `CCOc1ccccc1N1CCCS/C1=N\N=C\c1ccc(-c2ncn(-c3ccc(OC(F)(F)F)cc3)n2)cc1` [Compound 208C], the pest or weed control at 50 µg/cm2, 50 µg/cm2 in experiment [1] and in experiment [2] was 50 to 100% each time.
Regarding `Cc1cccc(C)c1/N=C1\SCC(=O)N1/N=C/c1ccc(-c2ncn(-c3ccc(OC(F)(F)F)cc3)n2)cc1` [Compound 81C], the pest or weed control at 50 µg/cm2, 50 µg/cm2 in experiment [1] and in experiment [2] was 50 to 100% each time.
`CC(C)c1ccccc1N1CCCS/C1=N\N=C\c1ccc(-c2ncn(-c3ccc(OC(F)(F)F)cc3)n2)cc1` [Compound 177C]: the pest or weed control at 50 µg/cm2, 50 µg/cm2 in experiment [1] and in experiment [2] was 50 to 100% in each case.
With `Cc1cccc(C)c1/N=C(/N/N=C/c1ccc(-c2ncn(-c3ccc(OC(F)(F)F)cc3)n2)cc1)SCC(=O)NCC(C)C` [Compound 55C], the pest or weed control at 50 µg/cm2, 50 µg/cm2 in experiment [1] and in experiment [2] was 50 to 100% throughout.
For `Cc1cccc(Cl)c1N1C(=O)CCS/C1=N\N=C\c1ccc(-c2ncn(-c3ccc(OC(F)(F)F)cc3)n2)cc1` [Compound 227C], the pest or weed control at 50 µg/cm2, 50 µg/cm2 in experiment [1] and in experiment [2] was 50 to 100% in each case.
Take `COCOCC(C)C(=O)OCS/C(=N\c1c(C)cc(OC)cc1C)N/N=C/c1ccc(-c2ncn(-c3ccc(OC(F)(F)F)cc3)n2)cc1` (stereo not shown) [Compound 42C]: the pest or weed control at 50 µg/cm2, 50 µg/cm2 in experiment [1] and in experiment [2] was 50 to 100% in each case.
In the case of `CCc1cccc(C)c1N1C(=O)CCS/C1=N\N=C\c1ccc(-c2ncn(-c3ccc(OC(F)(F)F)cc3)n2)cc1` [Compound 225C], the pest or weed control at 50 µg/cm2, 50 µg/cm2 in experiment [1] and in experiment [2] was 50 to 100% in each case.
On to `COc1cc(C)c(N2C(=O)CSC2=NN=Cc2ccc(-c3ncn(-c4ccc(OC(F)(F)F)cc4)n3)cc2)c(C)c1` (stereo in doubt) [Compound 69C, (Z)-3-(4-methoxy-2,6-dimethylphenyl)-2-((E)-(4-(1-(4-(trifluoromethoxy)phenyl)-1H-1,2,4-triazol-3-yl)benzylidene)hydrazono)thiazolidin-4-one], for which the pest or weed control at 50 µg/cm2, 50 µg/cm2 in experiment [1] and in experiment [2] was 50 to 100% in each case.
As to `FC(F)Oc1ccccc1N1CCCS/C1=N\N=C\c1ccc(-c2ncn(-c3ccc(OC(F)(F)F)cc3)n2)cc1` [Compound 200C], the pest or weed control at 50 µg/cm2, 50 µg/cm2 in experiment [1] and in experiment [2] was 50 to 100% each time.
Turning to `Cc1cc(C)c(N2/C(=N/N=C/c3ccc(-c4ncn(-c5ccc(OC(F)(F)F)cc5)n4)cc3)SCC2C)c(C)c1` (stereo not shown) [Compound 161C], the pest or weed control at 50 µg/cm2, 50 µg/cm2 in experiment [1] and in experiment [2] was 50 to 100% throughout.
Consider `O=C1CCS/C(=N\N=C\c2ccc(-c3ncn(-c4ccc(OC(F)(F)F)cc4)n3)cc2)N1c1c(F)cccc1F` [Compound 226C], for which the pest or weed control at 50 µg/cm2, 50 µg/cm2 in experiment [1] and in experiment [2] was 50 to 100% in each case.
As to `CC(C)Cc1ccccc1N1CCS/C1=N\N=C\c1ccc(-c2ncn(-c3ccc(OC(F)(F)F)cc3)n2)cc1` [Compound 150C], the pest or weed control at 50 µg/cm2, 50 µg/cm2 in experiment [1] and in experiment [2] was 50 to 100% in each case.
`CC(C)c1cc(F)ccc1N1CS/C1=N\N=C\c1ccc(-c2ncn(-c3ccc(C(F)(F)F)cc3)n2)cc1` [Compound 261C]: the pest or weed control at 50 µg/cm2, 50 µg/cm2 in experiment [1] and in experiment [2] was 50 to 100% each time.
With `Cc1cccc(C(C)C)c1N1C(=O)CS/C1=N\N=C\c1ccc(-c2ncn(-c3ccc(OC(F)(F)F)cc3)n2)cc1` [Compound 238C], the pest or weed control at 50 µg/cm2, 50 µg/cm2 in experiment [1] and in experiment [2] was 50 to 100% each time.
With `CCC(C)c1ccccc1N1/C(=N/N=C/c2ccc(-c3ncn(-c4ccc(OC(F)(F)F)cc4)n3)cc2)SCC1C` (stereo not shown) [Compound 163C], the pest or weed control at 50 µg/cm2, 50 µg/cm2 in experiment [1] and in experiment [2] was 50 to 100% throughout.
Take `CCC1CS/C(=N\N=C\c2ccc(-c3ncn(-c4ccc(OC(F)(F)F)cc4)n3)cc2)N1c1c(C)cccc1Cl` (stereo not shown) [Compound 167C]: the pest or weed control at 50 µg/cm2, 50 µg/cm2 in experiment [1] and in experiment [2] was 50 to 100% each time.
As for `Fc1cccc(Cl)c1N1CCS/C1=N\N=C\c1ccc(-c2ncn(-c3ccc(OC(F)(F)F)cc3)n2)cc1` [Compound 143C], the pest or weed control at 50 µg/cm2, 50 µg/cm2 in experiment [1] and in experiment [2] was 50 to 100% in each case.
